Measurements from patent US11369565B2, “Amino-pyrimidine skeletal muscle modulators” (Cytokinetics, Inc., priority 2010, dated 2022).

tested on: rabbit skeletal myofibrils (approximately 90% fast fibers); assay: Activation of fast skeletal myofibrils (PUMA coupled-enzyme ATPase assay at pCa25); type: biochemical; details: concentration at which the compound increased the enzymatic activity by 40%; calcium at pCa25; PM12 buffer pH 6.8
Experimental: Preparation of fast skeletal myofibrils. Rabbit skeletal myofibrils were prepared based upon the method of Herrmann et al. (Biochem. 32(28):7255-7263(1993). Myofibrils were prepared from rabbit psoas muscle purchased from Pel-Freez Biologicals (Arkansas) within 2 days of ordering, stored on ice. Minced muscle was homogenized in 10 volumes of ice-cold “standard” buffer (50 mM Tris, pH 7.4, 0.1 M potassium acetate, 5 mM KCl, 2 mM DTT, 0.2 mM PMSF, 10 μM leupeptin, 5 μM pepstatin, and 0.5 mM sodium azide) containing 5 mM EDTA and 0.5% Triton X-100 using an Omni-Macro homogenizer. Myofibrils were recovered by low speed centrifugation (3000 rpm for 10 minutes) and washed 2 times in the Triton X-100 containing buffer to ensure removal of cellular membrane. Following the Triton washes, myofibrils were washed 3 times in “standard” buffer containing 2 mM magnesium acetate. A final wash in assay buffer (12 mM PIPES, pH 6.8, 60 mM KCl, 1 mM DTT) was performed and brought to 10% sucrose for flash freezing in liquid nitrogen and storage at −80° C.
Activation of Fast Skeletal Myofibrils. Fast fiber activators were identified by measuring the enzymatic activity of muscle myofibril preparations using the proprietary PUMA™ (see, e.g., U.S. Pat. Nos. 6,410,254, 6,743,599, 7,202,051, and 7,378,254) assay system. Myofibril preparations consisted of rabbit skeletal muscle (approximately 90% fast fibers) that had been mechanically homogenized and washed with a detergent (triton X-100) to remove cellular membranes. This preparation retained all of the sarcomeric components in a native conformation and the enzymatic activity was still regulated by calcium. Compounds were tested using a myofibril suspension and a level of calcium sufficient to increase enzymatic activity of the myofibrils to 25% of their maximal rate (termed pCa25). Enzymatic activity was tracked via a pyruvate kinase and lactate dehydrogenase-coupled enzyme system. This assay regenerates myosin-produced ADP into ATP by oxidizing NADH, producing an absorbance change at 340 nm. The buffering system was 12 mM Pipes, 2 mM MgCl2, 1 mM DTT at pH 6.8 (PM12 buffer).

**Q.** For COC(=O)c1nc(-c2cnc(NC(C)(C)c3ncccc3Cl)nc2)cn1C [methyl 4-(2-{[1-(3-chloro(2-pyridyl))-isopropyl}amino}pyrimidin-5-yl)-1-methylimidazole-2-carboxylate], which “Mean AC1.4” value is on record?
**A.** D (D=>20 uM)

**Q.** COc1ncc(-c2cnc(NC[C@]3(c4ncccc4F)C[C@H](F)C3)nc2)cn1 [{[3-fluoro-1-(3-fluoro(2-pyridyl))cyclobutyl]methyl} [5-(2-methoxypyrimidin-5-yl)pyrimidin-2-yl]amine] was tested. Which “Mean AC1.4” value did it give?
**A.** D (D=>20 uM)

**Q.** How did the “Mean AC1.4” value turn out when CCNC(=O)c1cnc(NCC2(c3ncccc3F)CCC2)nc1 [N-ethyl[2-({[(3-fluoro(2-pyridyl))cyclobutyl]methyl}amino)pyrimidin-5-yl] carboxamide] was run?
**A.** D (D=>20 uM)

**Q.** Which “Mean AC1.4” value does the source give for COc1ccc(-c2cnc(NC[C@]3(c4ncccc4F)C[C@H](F)C3)nc2)nn1 [{[3-fluoro-1-(3-fluoro(2-pyridyl))cyclobutyl]methyl}[5-(6-methoxypyridazin-3-yl)]pyrimidin-2-yl]amine] here?
**A.** D (D=>20 uM)

**Q.** CC(C)(Nc1ncc(-c2ncc(C#N)s2)cn1)c1ncccc1F [2-(2-{[1-(3-fluoro(2-pyridyl))-isopropyl]amino}pyrimidin-5-yl)-1,3-thiazole-5-carbonitrile] was tested. Which “Mean AC1.4” value did it give?
**A.** D (D=>20 uM)

**Q.** Which “Mean AC1.4” value does the source give for CC(C)(Nc1ncc(-c2cc(C(N)=O)ccc2F)cn1)c1ncccc1Cl [3-(2-{[1-(3-chloro(2-pyridyl))-isopropyl]amino}pyrimidin-5-yl)-4-fluorobenzamide] here?
**A.** A (A=<1 uM)

**Q.** For CC(=O)NCc1cnc(-c2cnc(NCC3(c4ncccc4F)CCC3)nc2)s1 [N-({2-[2-({[(3-fluoro-2-pyridyl)cyclobutyl]methyl}amino)pyrimidin-5-yl]-1,3-thiazol-5-yl}methyl)acetamide], which “Mean AC1.4” value is on record?
**A.** B (B=1-10 uM)

**Q.** For N#Cc1cnn(-c2cnc(NC[C@]3(c4ncccc4F)C[C@H](F)C3)nc2)c1 [1-[2-({[3-fluoro-1-(3-fluoro(2-pyridyl))cyclobutyl]methyl}amino)pyrimidin-5-yl]pyrazole-4-carbonitrile], which “Mean AC1.4” value is on record?
**A.** C (C=10-20 uM)

**Q.** How did the “Mean AC1.4” value turn out when CC(C)(CNc1ncc2c(n1)CCN(C(=O)C(N)=O)C2)c1ccc(F)cc1 [2-(2-{[2-(4-fluorophenyl)-2-methylpropyl]amino}(5,6,7,8-tetrahydropyridino[4,3-d]pyrimidin-6-yl))-2-oxoacetamide] was run?
**A.** D (D=>20 uM)

**Q.** Which “Mean AC1.4” value does the source give for O=C(O)c1cnc(NC2(c3ncccc3F)CCC2)nc1C(F)(F)F [2-{[(3-fluoro(2-pyridyl))cyclobutyl]amino}-4-(trifluoromethyl)pyrimidine-5-carboxylic acid] here?
**A.** D (D=>20 uM)

**Q.** CC(C)(Nc1ncc(-c2noc(C(N)=O)n2)cn1)c1ncccc1Cl [3-(2-{[1-(3-chloro(2-pyridyl))-isopropyl]amino}pyrimidin-5-yl)-1,2,4-oxadiazole-5-carboxamide] was tested. Which “Mean AC1.4” value did it give?
**A.** D (D=>20 uM)

**Q.** CC(=O)N1CCc2nc(NCC(C)(C)c3ccc(F)cc3)ncc2C1 [6-acetyl-2-{[2-(4-fluorophenyl)-2-methylpropyl]amino}-5,6,7,8-tetrahydropyridino[4,3-d]pyrimidine] was tested. Which “Mean AC1.4” value did it give?
**A.** D (D=>20 uM)

**Q.** For CC(=O)NCc1cnc(-c2cnc(NC(C)(C)c3ncccc3Cl)nc2)s1 [N-{[2-(2-{[1-(3-chloro(2-pyridyl))-isopropyl]amino)}pyrimidin-5-yl)-1,3-thiazol-5-yl]methyl]acetamide], which “Mean AC1.4” value is on record?
**A.** C (C=10-20 uM)

**Q.** For CC(C)(Nc1ncc(-n2cc(C(N)=O)cn2)cn1)c1ncccc1F [1-(2-{[1-(3-fluoro(2-pyridyl))-isopropyl]amino}pyrimidin-5-yl)pyrazole-4-carboxamide], which “Mean AC1.4” value is on record?
**A.** D (D=>20 uM)

**Q.** Cc1nc(N)ncc1-c1cnc(NC[C@]2(c3ncccc3F)C[C@H](F)C2)nc1 [[5-(2-amino-4-methylpyrimidin-5-yl)pyrimidin-2-yl]{[3-fluoro-1-(3-fluoro(2-pyridyl))cyclobutyl]methyl}amine] was tested. Which “Mean AC1.4” value did it give?
**A.** C (C=10-20 uM)

**Q.** For CN(C(=O)c1cnc(NCC2(c3ncccc3F)CCC2)nc1)c1nccs1 [[2-({[(3-fluoro(2-pyridyl))cyclobutyl)]methyl}amino) pyrimidin-5-yl]-N-methyl-N-(1,3-thiazol-2-yl)carboxamide], which “Mean AC1.4” value is on record?
**A.** D (D=>20 uM)

**Q.** For Fc1cccnc1C1(Nc2ncc3cc(Br)ccc3n2)CCC1 [(6-bromoquinazolin-2-yl)[(3-fluoro(2-pyridyl))cyclobutyl]amine], which “Mean AC1.4” value is on record?
**A.** D (D=>20 uM)

**Q.** Which “Mean AC1.4” value does the source give for CNC(=O)c1ccc(O)c(-c2cnc(NCC3(c4ncccc4F)CCC3)nc2)c1 [{3-[2-({[(3-fluoro(2-pyridyl))cyclobutyl]methyl}amino)pyrimidin-5-yl]-4-hydroxyphenyl}-N-methylcarboxamide] here?
**A.** B (B=1-10 uM)

**Q.** How did the “Mean AC1.4” value turn out when CN1CCc2nc(NCC(C)(C)c3ccc(F)cc3)ncc2C1 [[2-(4-fluorophenyl)-2-methylpropyl](6-methyl (5,6,7,8-tetrahydropyridino [4,3-d]pyrimidin-2-yl))amine] was run?
**A.** D (D=>20 uM)

**Q.** Which “Mean AC1.4” value does the source give for CN1CC(NC(=O)c2ccc(F)c(-c3cnc(NC[C@]4(c5ncccc5F)C[C@H](F)C4)nc3)c2)C1 [{4-fluoro-3-[2-({[3-fluoro-1-(3-fluoro(2-pyridyl))cyclobutyl]methyl}amino)pyrimidin-5-yl]phenyl}-N-(1-methylazetidin-3-yl)carboxamide] here?
**A.** B (B=1-10 uM)

**Q.** How did the “Mean AC1.4” value turn out when O=C(O)c1ccc(=O)n(-c2cnc(NC[C@]3(c4ncccc4F)C[C@H](F)C3)nc2)c1 [1-[2-({[3-fluoro-1-(3-fluoro(2-pyridyl))cyclobutyl]methyl}amino)pyrimidin-5-yl]-6-oxohydropyridine-3-carboxylic acid] was run?
**A.** D (D=>20 uM)

**Q.** CC(C)(Nc1ncc(-c2cc(C(N)=O)ncn2)cn1)c1ncccc1Cl [6-(2-{[1-(3-chloro(2-pyridyl))-isopropyl]amino}pyrimidin-5-yl)pyrimidine-4-carboxamide] was tested. Which “Mean AC1.4” value did it give?
**A.** B (B=1-10 uM)

**Q.** With CC(C)(Nc1ncc(-n2cc(C#N)cn2)cn1)c1ncccc1Cl [1-(2-{[1-(3-chloro(2-pyridyl))-isopropyl]amino}pyrimidin-5-yl)pyrazole-4-carbonitrile] as the compound, how does the “Mean AC1.4” value read?
**A.** D (D=>20 uM)

**Q.** For CNC(=O)c1ccnc(-c2cnc(NC[C@]3(c4ncccc4F)C[C@H](F)C3)nc2)n1 [{2-[2-({[3-fluoro-1-(3-fluoro(2-pyridyl))cyclobutyl]methyl}amino)pyrimidin-5-yl]pyrimidin-4-yl}-N-methylcarboxamide], which “Mean AC1.4” value is on record?
**A.** B (B=1-10 uM)

**Q.** How did the “Mean AC1.4” value turn out when Cc1cccnc1C(C)(C)Nc1ncc(-c2cc(C(N)=O)ccc2F)cn1 [4-fluoro-3-(2-{[1-methyl-1-(3-methyl(2-pyridyl))ethyl]amino}pyrimidin-5-yl)benzamide] was run?
**A.** B (B=1-10 uM)

**Q.** Which “Mean AC1.4” value does the source give for CC(C)(Nc1ncc(-c2nc(C(N)=O)co2)cn1)c1ncccc1Cl [2-(2-{[1-(3-chloro(2-pyridyl))-isopropyl]amino}pyrimidin-5-yl)-1,3-oxazole-4-carboxamide] here?
**A.** D (D=>20 uM)

**Q.** Which “Mean AC1.4” value does the source give for NCc1cnc(-c2cnc(NCC3(c4ncccc4F)CCC3)nc2)s1 [{5-[5-(aminomethyl)(1,3-thiazol-2-yl)]pyrimidin-2-yl}{[(3-fluoro(2-pyridyl))cyclobutyl]methyl}amine] here?
**A.** C (C=10-20 uM)

**Q.** With O=C(O)c1ccn(-c2cnc(NC[C@]3(c4ncccc4F)C[C@H](F)C3)nc2)c1 [1-[2-({[3-fluoro-1-(3-fluoro(2-pyridyl))cyclobutyl]methyl}amino)pyrimidin-5-yl]pyrrole-3-carboxylic acid] as the compound, how does the “Mean AC1.4” value read?
**A.** D (D=>20 uM)

**Q.** With CC(C)(Nc1ncc(-c2ccc3[nH]nc(N)c3c2)cn1)c1ncccc1F [[5-(3-amino(1H-indazol-5-yl))pyrimidin-2-yl][1-(3-fluoro(2-pyridyl))-isopropyl]amine] as the compound, how does the “Mean AC1.4” value read?
**A.** A (A=<1 uM)

**Q.** With NC(=O)c1ccc(F)c(-c2cnc(NC3(c4ncccc4F)CCC3)nc2)c1 [4-fluoro-3-(2-{[(3-fluoro(2-pyridyl))cyclobutyl]amino}pyrimidin-5-yl)benzamide] as the compound, how does the “Mean AC1.4” value read?
**A.** A (A=<1 uM)

**Q.** CC(C)(Nc1ncc(-c2cc(C(N)=O)ccc2F)cn1)c1cccnc1Cl [3-(2-{[1-(2-chloro(3-pyridyl))-isopropyl]amino}pyrimidin-5-yl)-4-fluorobenzamide] was tested. Which “Mean AC1.4” value did it give?
**A.** B (B=1-10 uM)

**Q.** Fc1cc2[nH]ncc2cc1-c1cnc(NC2(c3ncccc3F)CCC2)nc1 [[5-(6-fluoro(1H-indazol-5-yl))pyrimidin-2-yl][(3-fluoro(2-pyridyl))cyclobutyl]amine] was tested. Which “Mean AC1.4” value did it give?
**A.** B (B=1-10 uM)
